The results in this text go back to US8435978B2, “Substituted sulfonamide compounds” (Gruenenthal GmbH, priority 2006, dated 2013).

In general, inhibition refers to the change of the read-out against control, counted positive when it falls.

One assay concerns the target T1, human B1R receptor (Homo sapiens, UniProt P46663).
T1 construct: host or cells: CHO K1 cells (Chinese hamster ovary), stably transfected
T1 sequence (P46663 1-353): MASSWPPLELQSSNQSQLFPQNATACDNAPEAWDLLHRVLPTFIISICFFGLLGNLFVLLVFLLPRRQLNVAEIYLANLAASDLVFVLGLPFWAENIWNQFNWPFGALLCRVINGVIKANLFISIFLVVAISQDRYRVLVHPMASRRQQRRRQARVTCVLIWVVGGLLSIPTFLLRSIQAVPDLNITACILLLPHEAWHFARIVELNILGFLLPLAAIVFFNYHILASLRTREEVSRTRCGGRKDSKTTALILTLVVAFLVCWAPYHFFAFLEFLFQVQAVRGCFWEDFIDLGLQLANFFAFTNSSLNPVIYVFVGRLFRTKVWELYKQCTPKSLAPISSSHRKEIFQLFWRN
The assay is described as follows: Functional study on the bradykinin receptor 1 (B1R), FLIPR Ca2+ assay, hB1R cells. It is filed as cell-based. The note with it: agonist Lys-Des-Arg9-bradykinin 0.5 nM, % inhibition compared with the maximum achievable inhibition; for inhibition at 10 µM: CHO-K1, test substance 10 μM, read-out: B1R Antagonism, human [10 μM] % Inhibition. How it is done: (§1) The agonistic or antagonistic action of substances can be quantified on the bradykinin receptor 1 (B1R) of the species human and rat with ectopically expressing cell lines (CHO K1 cells) and with the aid of a Ca^2+-sensitive dye (Fluo-4) using a fluorescent imaging plate reader (FLIPR). The indication in % activation is based on the Ca^2+ signal after addition of Lys-Des-Arg^9-bradykinin (0.5 nM) or Des-Arg^9-bradykinin (100 nM). Antagonists result in a suppression of the Ca^2+ influx following administration of the agonist. The % inhibition in comparison with the maximum achievable inhibition is indicated.
(§2) The agonistic or antagonistic action of substances can be determined on the bradykinin receptor 1 (B1R) of the species human and rat using the following assay. According to this assay, the Ca^2+ influx through the channel is quantified with the aid of a Ca^2+-sensitive dye (type Fluo-4, Molecular Probes Europe BV, Leiden, Netherlands) using a Fluorescent Imaging Plate Reader (FLIPR, Molecular Devices, Sunnyvale, USA).
(§3) Chinese hamster ovary cells (CHO K1 cells) which have been stably transfected with the human B1R gene (hB1R cells, Euroscreen s.a., Gosselies, Belgium) or with the B1R gene of the rat (rB1R cells, Axxam, Milan, Italy) are used. For functional studies, the cells are plated out on black 96-well plates having a clear base (BD Biosciences, Heidelberg, Germany) in a density of 20,000-25,000 cells/well. The cells are incubated overnight at 37° C. and with 5% CO2 in culture medium (hB1R cells: Nutrient Mixture Ham's F12, Gibco Invitrogen GmbH, Karlsruhe, Germany; rB1R cells: D-MEM/F12, Gibco Invitrogen GmbH, Karlsruhe, Germany), with 10 vol. % FBS (fetal bovine serum, Gibco Invitrogen GmbH, Karlsruhe, Germany). On the following day, the cells are loaded for 60 minutes at 37° C. with 2.13 μM Fluo-4 (Molecular Probes Europe BV, Leiden, Netherlands) in HBSS buffer (Hank's buffered saline solution, Gibco Invitrogen GmbH, Karlsruhe, Germany) […] (Sigma-Aldrich, Taufkirchen, Germany) and 10 mM HEPES (Sigma-Aldrich, Taufkirchen, Germany). The plates are then washed twice with HBSS buffer, and HBSS buffer additionally containing 0.1% BSA (bovine serum albumin; Sigma-Aldrich, Taufkirchen, Germany), 5.6 mM glucose and 0.05% gelatin (Merck KGaA, Darmstadt, Germany) is added to the plates. After incubation for a further 20 minutes at room temperature, the plates are inserted into the FLIPR for Ca^2+ measurement. The Ca^2+-dependent fluorescence is measured before and after the addition of substances (λex=488 nm, λem=540 nm). Quantification is carried out by measuring the highest fluorescence intensity (FC, fluorescence counts) over time.
(§4) The FLIPR protocol consists of 2 substance additions. Test substances (10 μM) are first pipetted onto the cells and the Ca^2+ influx is compared with the control (hB1R: Lys-Des-Arg^9-bradykinin 0.5 nM; rB1R: Des-Arg^9-bradykinin 100 nM). This gives the activation in %, based on the Ca^2+ signal after addition of Lys-Des-Arg^9-bradykinin (0.5 nM) or Des-Arg^9-bradykinin (100 nM).
(§5) After 10 minutes' incubation, 0.5 nM Lys-Des-Arg^9-bradykinin (hB1R) or 100 nM Des-Arg^9-bradykinin (rB1R) are applied, and the influx of Ca^2+ is likewise determined. Antagonists lead to suppression of the Ca^2+ influx. The % inhibition compared with the maximum achievable inhibition is calculated.

A further assay concerns the target T2, B1R receptor of the rat (Rattus norvegicus, UniProt P97583).
T2 construct: host or cells: CHO K1 cells (Chinese hamster ovary), stably transfected
T2 sequence (P97583 1-337): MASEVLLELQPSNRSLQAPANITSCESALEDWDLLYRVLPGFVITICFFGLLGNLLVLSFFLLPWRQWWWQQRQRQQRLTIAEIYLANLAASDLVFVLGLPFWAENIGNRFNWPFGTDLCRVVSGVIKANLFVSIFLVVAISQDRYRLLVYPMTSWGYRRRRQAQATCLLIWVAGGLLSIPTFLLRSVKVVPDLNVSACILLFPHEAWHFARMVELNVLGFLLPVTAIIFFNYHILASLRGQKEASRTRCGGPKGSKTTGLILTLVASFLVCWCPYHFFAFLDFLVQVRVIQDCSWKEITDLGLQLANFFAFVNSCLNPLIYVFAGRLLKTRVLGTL
The assay can be described thus: Functional study on the bradykinin receptor 1 (B1R), FLIPR Ca2+ assay, rB1R cells. The class given is cell-based. As to conditions: agonist Des-Arg9-bradykinin 100 nM, % inhibition compared with the maximum achievable inhibition; for inhibition at 10 µM: CHO-K1, test substance 10 μM, read-out: B1R Antagonism, rat [10 μM] % Inhibition. How it is done: as §1, §2, §3, §4, §5

`CN1CCN(C2CCN(C(=O)COCC3CCCCN3S(=O)(=O)c3ccc(Cl)c(Cl)c3)CC2)CC1` (centres unmarked) [Example 28, 2-[1-(3,4-dichloro-phenylsulfonyl)-piperidin-2-ylmethoxy]-1-[4-(4-methyl-piperazin-1-yl)-piperidin-1-yl]-ethanone]: the figures for the inhibition at 10 µM at human B1R receptor and at B1R receptor of the rat were 84.7% and 0%, respectively.

Turning to `CN1CCN(c2ccc(CNC(=O)COCC3CCCN3S(=O)(=O)c3c(Cl)cc(Cl)cc3Cl)cc2)CC1` (centres unmarked) [Example 29, N-[4-(4-methyl-piperazin-1-yl)-benzyl]-2-[1-(2,4,6-trichloro-phenylsulfonyl)-pyrrolidin-2-ylmethoxy]-acetamide], the inhibition at 10 µM on human B1R receptor turned out to be 84.4%; on B1R receptor of the rat it was 110%.

As for `O=C(COCC1CCCCN1S(=O)(=O)c1c(Cl)cc(Cl)cc1Cl)NCc1ccc(CN2CCOCC2)cc1` (centres unmarked) [Example 30, N-(4-morpholin-4-ylmethyl-benzyl)-2-[1-(2,4,6-trichloro-phenylsulfonyl)-piperidin-2-ylmethoxy]-acetamide], the inhibition at 10 µM at human B1R receptor turned out to be 84%; on B1R receptor of the rat it was 108%.

In the case of `Cc1cc(C)c(S(=O)(=O)N2CCCCC2COCC(=O)N2CCCN(Cc3ccccc3)CC2)c(C)c1` (centres unmarked) [Example 31, 1-(4-benzyl-[1,4]diazepan-1-yl)-2-[1-(2,4,6-trimethyl-phenylsulfonyl)-piperidin-2-ylmethoxy]-ethanone], the values for the inhibition at 10 µM on human B1R receptor and at B1R receptor of the rat were 83.8% and 94.7%, respectively.

For `CN1CCC(N2CCN(C(=O)COCC3CCCCN3S(=O)(=O)c3ccc(Cl)c(Cl)c3)CC2)CC1` (centres unmarked) [Example 32, 2-[1-(3,4-dichloro-phenylsulfonyl)-piperidin-2-ylmethoxy]-1-[4-(1-methyl-piperidin-4-yl)-piperazin-1-yl]-ethanone], the inhibition at 10 µM at human B1R receptor was 83.3%; on B1R receptor of the rat, 63.3%.

Consider `Cc1cc(C)c(S(=O)(=O)N2Cc3ccccc3CC2COCC(=O)NCc2cccc(N3CCN(C)CC3)c2)c(C)c1` (centres unmarked) [Example 33, N-[3-(4-methyl-piperazin-1-yl)-benzyl]-2-[2-(2,4,6-trimethyl-phenylsulfonyl)-1,2,3,4-tetrahydro-isoquinolin-3-ylmethoxy]-acetamide], for which the inhibition at 10 µM was 82.7% on human B1R receptor and 47.7% at B1R receptor of the rat.

In the case of `O=C(COCC1CCCCN1S(=O)(=O)c1cccc2ccccc12)NCC1CCCN(Cc2ccccc2)C1` (centres unmarked) [Example 34, N-(1-benzyl-piperidin-3-ylmethyl)-2-[1-(naphthyl-1-sulfonyl)-piperidin-2-ylmethoxy]-acetamide], on human B1R receptor (test substance 10 μM, hB1R CHO K1 cells), the “B1R Antagonism, human [10 μM] % Inhibition” value was determined as 79.9%. The “B1R Antagonism, rat [10 μM] % Inhibition” value at B1R receptor of the rat (test substance 10 μM, rB1R CHO K1 cells) was determined as 39.48%.

For `COc1cc(C)c(S(=O)(=O)N2CCCC2COCC(=O)NCc2ccc(CN(C)C)cc2)c(C)c1` (centres unmarked) [Example 35, N-(4-dimethylaminomethyl-benzyl)-2-[1-(4-methoxy-2,6-dimethyl-phenylsulfonyl)-pyrrolidin-2-ylmethoxy]-acetamide], the results for the inhibition at 10 µM at human B1R receptor and at B1R receptor of the rat were 79.7% and 99%, respectively.

As for `O=C(COCC1CCCN1S(=O)(=O)c1ccc(Cl)c(Cl)c1)N1CCC(CCN2CCCCC2)CC1` (centres unmarked) [Example 36, 2-((1-(3,4-dichlorophenylsulfonyl)pyrrolidin-2-yl)methoxy)-1-(4-(2-(piperidin-1-yl)-ethyl)piperidin-1-yl)ethanone], the results for the inhibition at 10 µM on human B1R receptor and on B1R receptor of the rat were 79.4% and 45.7%, respectively.

Regarding `CN(C)Cc1ccc(CNC(=O)COCC2CCCCN2S(=O)(=O)c2c(Cl)cc(Cl)cc2Cl)cc1` (centres unmarked) [Example 37, N-(4-dimethylaminomethyl-benzyl)-2-[1-(2,4,6-trichloro-phenylsulfonyl)-piperidin-2-ylmethoxy]-acetamide], the inhibition at 10 µM was 78.2% at human B1R receptor and 103% at B1R receptor of the rat.

For the molecule `O=C(COCC1Cc2ccccc2CN1S(=O)(=O)c1ccc(Cl)c(Cl)c1)N1CCC(N2CCCC2)CC1` (centres unmarked) [Example 38, 2-((2-(3,4-dichlorophenylsulfonyl)-1,2,3,4-tetrahydroisoquinolin-3-yl)methoxy)-1-(4-(pyrrolidin-1-yl)piperidin-1-yl)ethanone], the results for the inhibition at 10 µM at human B1R receptor and at B1R receptor of the rat were 75% and 65.4%, respectively.

In the case of `O=C(COCC1CCCCN1S(=O)(=O)c1ccc(Cl)c(Cl)c1)N1CCN(Cc2ccc3c(c2)OCO3)CC1` (centres unmarked) [Example 39, 1-(4-benzo[1,3]dioxol-5-ylmethyl-piperazin-1-yl)-2-[1-(3,4-dichloro-phenylsulfonyl)-piperidin-2-ylmethoxy]-ethanone], the inhibition at 10 µM amounted to 73.2% at human B1R receptor and 0% at B1R receptor of the rat.

On to `COc1cc(C)c(S(=O)(=O)N2CCCC2COCC(=O)NCc2ccc(CN3CCN(C)CC3)cc2)c(C)c1` (centres unmarked) [Example 40, 2-[1-(4-methoxy-2,6-dimethyl-phenylsulfonyl)-pyrrolidin-2-ylmethoxy]-N-[4-(4-methyl-piperazin-1-ylmethyl)-benzyl]-acetamide], for which the values for the inhibition at 10 µM at human B1R receptor and on B1R receptor of the rat were 72.7% and 88.7%, respectively.

On to `Cc1cc(C)c(S(=O)(=O)N2Cc3ccccc3CC2COCC(=O)NCC2CCCN(Cc3ccccc3)C2)c(C)c1` (centres unmarked) [Example 41, N-(1-benzyl-piperidin-3-ylmethyl)-2-[2-(2,4,6-trimethyl-phenylsulfonyl)-1,2,3,4-tetrahydro-isoquinolin-3-ylmethoxy]-acetamide], for which the inhibition at 10 µM was found to be 72.6% on human B1R receptor and 16.4% at B1R receptor of the rat.

With `O=C(COCC1CCCCN1S(=O)(=O)c1ccc(Cl)c(Cl)c1)N1CCN(CCN2CCCCC2)CC1` (centres unmarked) [Example 42, 2-((1-(3,4-dichlorophenylsulfonyl)piperidin-2-yl)methoxy)-1-(4-(2-(piperidin-1-yl)-ethyl)piperazin-1-yl)ethanone], the inhibition at 10 µM worked out at 70.6% at human B1R receptor and 57.9% on B1R receptor of the rat.

For `CCN(CC)CCN(CCN(CC)CC)C(=O)COCC1Cc2ccccc2CN1S(=O)(=O)c1ccc(Cl)c(Cl)c1` (centres unmarked) [Example 43, 2-[2-(3,4-dichloro-phenylsulfonyl)-1,2,3,4-tetrahydro-isoquinolin-3-ylmethoxy]-N,N-bis-(2-diethylamino-ethyl)-acetamide], the inhibition at 10 µM on human B1R receptor was 69.9%; on B1R receptor of the rat, 24.2%.
